Results on 25 compounds are retold here after PubChem BioAssay AID489003 (NMMLSC, 2010).

The term EC50 denotes the concentration that produces a half-maximal response.

This test has as its target Broad substrate specificity ATP-binding cassette transporter ABCG2 (Homo sapiens) (UniProt Q9UNQ0). The test is described as follows: ABCG2 efflux pump inhibitors, dose response, Ig-MXP3 cells, JC-1 substrate, flow cytometry (AID 489003). The note with it: JC-1 efflux. Background: A flow cytometer gives signals particle by particle.

Calls of active or inactive are those of the source.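 Rule for the calls: active = compounds whose weighted score, built from EC50 under 10 micromolar and fitted span over a set limit, tops 52; inactive = the rest.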

Chain of Broad substrate specificity ATP-binding cassette transporter ABCG2 (Homo sapiens) (Q9UNQ0 whole entry, looked up): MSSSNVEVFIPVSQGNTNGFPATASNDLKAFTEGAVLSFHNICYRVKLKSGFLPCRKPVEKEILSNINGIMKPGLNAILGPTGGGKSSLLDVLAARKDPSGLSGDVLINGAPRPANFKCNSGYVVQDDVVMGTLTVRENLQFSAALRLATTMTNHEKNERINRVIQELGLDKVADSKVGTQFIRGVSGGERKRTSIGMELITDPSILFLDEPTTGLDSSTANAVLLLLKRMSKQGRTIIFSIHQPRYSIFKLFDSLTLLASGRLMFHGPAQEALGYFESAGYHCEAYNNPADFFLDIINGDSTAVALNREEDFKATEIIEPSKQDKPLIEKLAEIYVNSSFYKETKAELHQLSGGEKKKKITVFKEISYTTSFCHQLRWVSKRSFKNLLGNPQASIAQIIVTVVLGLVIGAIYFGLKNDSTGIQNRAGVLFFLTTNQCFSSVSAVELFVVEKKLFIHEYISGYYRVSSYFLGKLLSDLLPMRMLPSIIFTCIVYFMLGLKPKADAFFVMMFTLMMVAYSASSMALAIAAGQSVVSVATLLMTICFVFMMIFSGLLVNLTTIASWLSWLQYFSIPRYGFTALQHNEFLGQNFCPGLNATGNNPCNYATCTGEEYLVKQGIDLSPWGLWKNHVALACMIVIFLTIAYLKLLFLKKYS

For `Cc1nc2cc(-c3ccc4c(c3)OCO4)nn2c(N2CCN(C(=O)c3ccoc3)CC2)c1C`, the EC50 was 613 nM.

For the compound `Cc1occc1C(=O)N1CCN(c2cc(-c3ccco3)nc3cc(-c4ccccc4)nn23)CC1`, the EC50 is 1690 nM.

On to `COc1ccccc1-c1cc2nc(-c3ccco3)cc(N3CCN(C(=O)c4ccoc4)CC3)n2n1`, for which the EC50 was 4270 nM.

In the case of `CC(=O)N1CCN(c2cc(-c3ccccc3)nc3cc(-c4ccccc4)nn23)CC1`, the EC50 was 2360 nM.

For the compound `O=C(c1ccco1)N1CCN(c2cc(-c3ccccc3)nc3ncnn23)CC1`, the concentration for a half-maximal effect (EC50) is 3550 nM.

`O=C(c1ccoc1)N1CCN(c2cc(-c3cccc(F)c3)nc3cc(-c4ccccc4)nn23)CC1`: the EC50 was 2110 nM.

On to `O=C(c1ccccc1)N1CCN(c2cc(-c3ccco3)nc3cc(-c4ccccc4)nn23)CC1`, for which the EC50 was 1510 nM.

`COc1ccc(-c2cc3nc(-c4ccco4)cc(N4CCN(C(=O)c5ccoc5)CC4)n3n2)cc1`: the EC50 was 1800 nM.

Consider `CC(C)(C)c1cc(N2CCN(C(=O)c3ccoc3)CC2)n2nc(-c3ccccc3)cc2n1`, for which the EC50 entry was “inactive”.

For `Cc1nc2cc(-c3cccc(Cl)c3)nn2c(N2CCN(C(=O)c3ccoc3)CC2)c1C`, the EC50 is 9310 nM.

Consider `Cc1nc2cc(-c3cccc(F)c3)nn2c(N2CCN(C(=O)c3ccco3)CC2)c1C`, for which the EC50 was 1430 nM.

For `COc1cccc(-c2cc3nc(-c4ccccc4)c(C)c(N4CCN(C(=O)c5ccoc5)CC4)n3n2)c1`, the half-maximal effective concentration (EC50) is 1670 nM.

In the case of `COc1cccc(-c2cc3nc(C)cc(N4CCN(C(=O)c5ccoc5)CC4)n3n2)c1`, the EC50 was 4570 nM.

In the case of `O=C(c1ccoc1)N1CCN(c2cc(-c3ccccc3)nc3cc(-c4ccncc4)nn23)CC1`, the EC50 is 1030 nM.

On to `Cc1nc2cc(-c3ccc(F)cc3)nn2c(N2CCN(C(=O)c3ccco3)CC2)c1C`, for which the EC50 was 7640 nM.

Consider `Cc1ccc(-c2cc3nc(-c4ccco4)cc(N4CCN(Cc5ccoc5)CC4)n3n2)cc1`, for which the EC50 was 1820 nM.

In the case of `COc1cccc(-c2cc3nc(-c4ccco4)cc(N4CCN(C(C)=O)CC4)n3n2)c1`, the EC50 is 892 nM.

As for `Cc1coc(C)c1C(=O)N1CCN(c2cc(-c3ccco3)nc3cc(-c4ccccc4)nn23)CC1`, the EC50 is 3220 nM.

With `Cc1c(-c2ccco2)nc2cc(-c3ccccc3)nn2c1N1CCN(C(=O)c2ccoc2)CC1`, the EC50 was 2440 nM.

On to `O=C(c1ccoc1)N1CCN(c2cc(-c3ccco3)nc3cc(-c4ccccc4)nn23)CC1`, for which the EC50 was 460 nM.

Consider `COc1cccc(-c2cc3nc(C)c(C)c(N4CCN(C(=O)c5ccco5)CC4)n3n2)c1`, for which the EC50 was 7100 nM.

`COc1ccc(-c2cc3nc(C)c(C)c(N4CCN(C(=O)c5ccco5)CC4)n3n2)cc1`: the EC50 is 2680 nM.

As for `O=C(c1ccoc1)N1CCN(c2cc(-c3ccoc3)nc3cc(-c4ccccc4)nn23)CC1`, the EC50 is 1590 nM.

For `CC(=O)N1CCN(c2cc(-c3ccco3)nc3cc(-c4ccccc4)nn23)CC1`, the EC50 result is “inactive”.

Turning to `CNCCCN(C)c1cc(-c2ccco2)nc2cc(-c3ccccc3)nn12`, the EC50 entry was “inactive”.
